Laboratory results from ChEMBL document CHEMBL1201861, “Genomics of Drug Sensitity in Cancer screening data, Wellcome Trust Sanger Institute”.

How the values were obtained:
Format in all cases: functional, cell-based
SK-MES-1 = test: cells; settings: Homo sapiens;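 also: growth inhibition of human SK-MES-1 cells, read out with a cell viability assay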
Description: SANGER: Inhibition of human SK-MES-1 cell growth in a cell viability assay.

NCI-H810 = test: cells; settings: Homo sapiens;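 also: IC50 reflects inhibition of cancer cell line growth, read out with a cell viability assay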
Description: SANGER: Inhibition of human NCI-H810 cell growth in a cell viability assay.

NCI-H28 = test: cells; settings: Homo sapiens;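 also: growth inhibition of human NCI-H28 cells, read out as cell viability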
Description: SANGER: Inhibition of human NCI-H28 cell growth in a cell viability assay.

SW1573 = test: cells; settings: Homo sapiens;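 also: growth inhibition of SW1573 cells, read out with a cell viability assay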
Description: SANGER: Inhibition of human SW1573 cell growth in a cell viability assay.

SCC-25 = test: cells; settings: Homo sapiens;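 also: growth inhibition of SCC-25 cells, measured with a cell viability assay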
Description: SANGER: Inhibition of human SCC-25 cell growth in a cell viability assay.

UACC-62 = test: cells; settings: Homo sapiens;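 also: growth inhibition of human UACC-62 cells, read out by a cell viability assay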
Description: SANGER: Inhibition of human UACC-62 cell growth in a cell viability assay.

KOSC-2 = test: cells; settings: Homo sapiens;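 also: growth inhibition of KOSC-2 cells, read out by a cell viability assay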
Description: SANGER: Inhibition of human KOSC-2 cell growth in a cell viability assay.

RMG-I = test: cells; settings: Homo sapiens;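 also: growth inhibition of human RMG-I cells, read out with a cell viability assay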
Description: SANGER: Inhibition of human RMG-I cell growth in a cell viability assay.

SN12C = test: cells; settings: Homo sapiens;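 also: growth inhibition of human SN12C cells, measured by a cell viability assay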
Description: SANGER: Inhibition of human SN12C cell growth in a cell viability assay.

CAMA-1 = test: cells; settings: Homo sapiens;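 also: growth inhibition of CAMA-1 cells, read out with a cell viability assay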
Description: SANGER: Inhibition of human CAMA-1 cell growth in a cell viability assay.

CAL-62 = test: cells; settings: Homo sapiens;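 also: growth inhibition of CAL-62 cells, read out with a cell viability assay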
Description: SANGER: Inhibition of human CAL-62 cell growth in a cell viability assay.

NCI-H2087 = test: cells; settings: Homo sapiens;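 also: growth inhibition determined with a cell viability readout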
Description: SANGER: Inhibition of human NCI-H2087 cell growth in a cell viability assay.

OAW-28 = test: cells; settings: Homo sapiens;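 also: growth inhibition of OAW-28 cells, read out with a cell viability assay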
Description: SANGER: Inhibition of human OAW-28 cell growth in a cell viability assay.

S-117 = test: cells; settings: Homo sapiens
Description: SANGER: Inhibition of human S-117 cell growth in a cell viability assay.

OAW-42 = test: cells; settings: Homo sapiens;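 also: growth inhibition of OAW-42 cells, read out with a cell viability assay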
Description: SANGER: Inhibition of human OAW-42 cell growth in a cell viability assay.

RPMI-7951 = test: cells; settings: Homo sapiens
Description: SANGER: Inhibition of human RPMI-7951 cell growth in a cell viability assay.

MIA PaCa-2 = test: cells; settings: Homo sapiens;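 also: growth inhibition of MIA PaCa-2 cells, read out with a cell viability assay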
Description: SANGER: Inhibition of human MIA-PaCa-2 cell growth in a cell viability assay.

HuP-T3 = test: cells; settings: Homo sapiens;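 also: HuP-T3 cell growth inhibition, read out with a cell viability assay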
Description: SANGER: Inhibition of human HuP-T3 cell growth in a cell viability assay.

T98G = test: cells; settings: Homo sapiens;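 also: growth inhibition of T98G cells, read out by a cell viability assay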
Description: SANGER: Inhibition of human T98G cell growth in a cell viability assay.

COLO-679 = test: cells; settings: Homo sapiens
Description: SANGER: Inhibition of human COLO-679 cell growth in a cell viability assay.

AU565 = test: cells; settings: Homo sapiens;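 also: cell viability assay measuring growth inhibition of human AU565 cells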
Description: SANGER: Inhibition of human AU565 cell growth in a cell viability assay.

D-392MG = test: cells; settings: Homo sapiens
NCI-N87 = test: cells; settings: Homo sapiens;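 also: growth inhibition of human NCI-N87 cells, read out with a cell viability assay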
Description: SANGER: Inhibition of human NCI-N87 cell growth in a cell viability assay.

AGS = test: cells; settings: Homo sapiens;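 also: growth inhibition of AGS cells, determined with a cell viability assay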
Description: SANGER: Inhibition of human AGS cell growth in a cell viability assay.

NCI-H661 = test: cells; settings: Homo sapiens;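 also: cell viability assay read-out, IC50 being the concentration that inhibits growth of the cells by half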
Description: SANGER: Inhibition of human NCI-H661 cell growth in a cell viability assay.

CAL-51 = test: cells; settings: Homo sapiens;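 also: human CAL-51 cell line, growth inhibition read out via a cell viability assay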
Description: SANGER: Inhibition of human CAL-51 cell growth in a cell viability assay.

PANC-03-27 = test: cells; settings: Homo sapiens
Description: SANGER: Inhibition of human PANC-03-27 cell growth in a cell viability assay.

NCI-H2405 = test: cells; settings: Homo sapiens;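 also: growth inhibition of the human cell line, read out with a cell viability assay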
Description: SANGER: Inhibition of human NCI-H2405 cell growth in a cell viability assay.

NCI-H650 = test: cells; settings: Homo sapiens;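 also: growth inhibition of NCI-H650 cells, read out by a viability assay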
Description: SANGER: Inhibition of human NCI-H650 cell growth in a cell viability assay.

HCC70 = test: cells; settings: Homo sapiens;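 also: cell viability assay measuring how strongly the compound suppresses proliferation of HCC70 cells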
Description: SANGER: Inhibition of human HCC70 cell growth in a cell viability assay.

G-401 = test: cells; settings: Homo sapiens
Description: SANGER: Inhibition of human G-401 cell growth in a cell viability assay.

SKG-IIIa = test: cells; settings: Homo sapiens;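 also: cell growth inhibition, read out with a cell viability assay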
Description: SANGER: Inhibition of human SKG-IIIa cell growth in a cell viability assay.

HCC2157 = test: cells; settings: Homo sapiens;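 also: growth inhibition of the cancer cell line, read out as cell viability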
Description: SANGER: Inhibition of human HCC2157 cell growth in a cell viability assay.

EFO-27 = test: cells; settings: Homo sapiens;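 also: growth inhibition of EFO-27 cells, read out with a cell viability assay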
Description: SANGER: Inhibition of human EFO-27 cell growth in a cell viability assay.

RVH-421 = test: cells; settings: Homo sapiens
Description: SANGER: Inhibition of human RVH-421 cell growth in a cell viability assay.

WM-115 = test: cells; settings: Homo sapiens
Description: SANGER: Inhibition of human WM-115 cell growth in a cell viability assay.

HCC1954 = test: cells; settings: Homo sapiens;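 also: growth inhibition of human HCC1954 cells, read out with a cell viability assay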
Description: SANGER: Inhibition of human HCC1954 cell growth in a cell viability assay.

BFTC-909 = test: cells; settings: Homo sapiens
Description: SANGER: Inhibition of human BFTC-909 cell growth in a cell viability assay.

CAL-85-1 = test: cells; settings: Homo sapiens;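 also: growth inhibition of human CAL-85-1 cells, read out with a cell viability assay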
Description: SANGER: Inhibition of human CAL-85-1 cell growth in a cell viability assay.

P12-Ichikawa = test: cells; settings: Homo sapiens
NB17 = test: cells; settings: Homo sapiens;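 also: growth inhibition of NB17 cells, read out with a cell viability assay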
Description: SANGER: Inhibition of human NB17 cell growth in a cell viability assay.

NCI-H630 = test: cells; settings: Homo sapiens;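 also: growth inhibition of NCI-H630 cells, read out with a cell viability assay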
Description: SANGER: Inhibition of human NCI-H630 cell growth in a cell viability assay.

MDA-MB-361 = test: cells; settings: Homo sapiens
A204 = test: cells; settings: Homo sapiens;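 also: growth inhibition of human A204 cells, read out with a cell viability assay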
Description: SANGER: Inhibition of human A204 cell growth in a cell viability assay.

DK-MG = test: cells; settings: Homo sapiens;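 also: growth inhibition of DK-MG cells, read out with a cell viability assay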
Description: SANGER: Inhibition of human DK-MG cell growth in a cell viability assay.

CA46 = test: cells; settings: Homo sapiens;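 also: growth inhibition of human CA46 cells, read out by a cell viability assay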
Description: SANGER: Inhibition of human CA46 cell growth in a cell viability assay.

SIMA = test: cells; settings: Homo sapiens;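 also: growth inhibition of SIMA cells, measured with a cell viability readout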
Description: SANGER: Inhibition of human SIMA cell growth in a cell viability assay.

SU-DHL-1 = test: SANGER: Inhibition of human SU-DHL-1 cell growth in a cell viability assay.
IMR-5 = test: cells; settings: Homo sapiens;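 also: growth inhibition of human IMR-5 cells, read out with a cell viability assay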
Description: SANGER: Inhibition of human IMR-5 cell growth in a cell viability assay.

MHH-CALL-2 = test: cells; settings: Homo sapiens;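 also: growth inhibition of the cell line, read out in a cell viability assay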
Description: SANGER: Inhibition of human MHH-CALL-2 cell growth in a cell viability assay.

LC4-1 = test: cells; settings: Homo sapiens;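 also: growth inhibition of LC4-1 cells, read out with a cell viability assay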
Description: SANGER: Inhibition of human LC4-1 cell growth in a cell viability assay.

Kasumi 1 = test: cells; settings: Homo sapiens;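 also: growth inhibition of human Kasumi-1 cells, read out by a cell viability assay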
Description: SANGER: Inhibition of human KASUMI-1 cell growth in a cell viability assay.

RL = test: cells; settings: Homo sapiens
Description: SANGER: Inhibition of human RL cell growth in a cell viability assay.

TE-15 = test: cells; settings: Homo sapiens;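 also: cell viability readout of growth inhibition in TE-15 cells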
Description: SANGER: Inhibition of human TE-15 cell growth in a cell viability assay.

MC-CAR = test: cells; settings: Homo sapiens;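 also: growth inhibition of the human MC-CAR cell line, read out by a cell viability assay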
Description: SANGER: Inhibition of human MC-CAR cell growth in a cell viability assay.

KARPAS-422 = test: cells; settings: Homo sapiens
Description: SANGER: Inhibition of human KARPAS-422 cell growth in a cell viability assay.

CMK = test: cells; settings: Homo sapiens;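 also: growth inhibition of CMK cells, read out as cell viability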
Description: SANGER: Inhibition of human CMK cell growth in a cell viability assay.

NCI-H1882 = test: cells; settings: Homo sapiens;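 also: growth inhibition of the cell line, determined with a viability assay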
Description: SANGER: Inhibition of human NCI-H1882 cell growth in a cell viability assay.

MDA-MB-134-VI = test: cells; settings: Homo sapiens
Description: SANGER: Inhibition of human MDA-MB-134-VI cell growth in a cell viability assay.

NCI-H1436 = test: cells; settings: Homo sapiens;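 also: growth suppression of human NCI-H1436 cells, determined with a cell viability readout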
Description: SANGER: Inhibition of human NCI-H1436 cell growth in a cell viability assay.

Q: Which IC50 (SK-MES-1) does the source give for `CC(=O)c1c(C)c2cnc(Nc3ccc(N4CCNCC4)cn3)nc2n(C2CCCC2)c1=O` [PALBOCICLIB] here?
A: 2620 nM

Q: And the IC50 (NCI-H810)?
A: > 4 µM

Q: What about the IC50 (NCI-H28) of the same compound?
A: > 4 µM

Q: And the IC50 (SW1573)?
A: > 4 µM

Q: And the IC50 (SCC-25)?
A: > 4 µM

Q: And the IC50 (UACC-62)?
A: > 4 µM

Q: What about the IC50 (KOSC-2) of the same compound?
A: 467 nM

Q: And the IC50 (RMG-I)?
A: > 4 µM

Q: And the IC50 (SN12C)?
A: 1010 nM

Q: And the IC50 (CAMA-1)?
A: 834 nM

Q: What about the IC50 (CAL-62) of the same compound?
A: 1610 nM

Q: What about the IC50 (NCI-H2087) of the same compound?
A: > 4 µM

Q: What about the IC50 (OAW-28) of the same compound?
A: > 4 µM

Q: What about the IC50 (S-117) of the same compound?
A: > 4 µM

Q: What about the IC50 (OAW-42) of the same compound?
A: > 4 µM

Q: What about the IC50 (RPMI-7951) of the same compound?
A: 2760 nM

Q: And the IC50 (MIA PaCa-2)?
A: 2360 nM

Q: What about the IC50 (HuP-T3) of the same compound?
A: > 4 µM

Q: And the IC50 (T98G)?
A: 2010 nM

Q: What about the IC50 (COLO-679) of the same compound?
A: > 4 µM

Q: And the IC50 (AU565)?
A: > 4 µM

Q: What about the IC50 (D-392MG) of the same compound?
A: > 4000 nM

Q: What about the IC50 (NCI-N87) of the same compound?
A: > 4 µM

Q: What about the IC50 (AGS) of the same compound?
A: > 4 µM

Q: And the IC50 (NCI-H661)?
A: > 4 µM

Q: What about the IC50 (CAL-51) of the same compound?
A: 1750 nM

Q: And the IC50 (PANC-03-27)?
A: > 4 µM

Q: What about the IC50 (NCI-H2405) of the same compound?
A: > 4 µM

Q: What about the IC50 (NCI-H650) of the same compound?
A: > 4 µM

Q: What about the IC50 (HCC70) of the same compound?
A: > 4 µM

Q: What about the IC50 (G-401) of the same compound?
A: 1920 nM

Q: What about the IC50 (SKG-IIIa) of the same compound?
A: > 4 µM

Q: And the IC50 (HCC2157)?
A: > 4 µM

Q: And the IC50 (EFO-27)?
A: 2320 nM

Q: What about the IC50 (RVH-421) of the same compound?
A: > 4 µM

Q: What about the IC50 (WM-115) of the same compound?
A: > 4 µM

Q: And the IC50 (HCC1954)?
A: > 4 µM

Q: And the IC50 (BFTC-909)?
A: > 4 µM

Q: And the IC50 (CAL-85-1)?
A: > 4 µM

Q: What about the IC50 (P12-Ichikawa) of the same compound?
A: 96 nM

Q: What about the IC50 (NB17) of the same compound?
A: > 4 µM

Q: And the IC50 (NCI-H630)?
A: > 4 µM

Q: What about the IC50 (MDA-MB-361) of the same compound?
A: > 4 µM

Q: And the IC50 (A204)?
A: 634 nM

Q: What about the IC50 (DK-MG) of the same compound?
A: > 4 µM

Q: `CCn1c(-c2nonc2N)nc2cnc(Oc3cccc(NC(=O)c4ccc(OCCN5CCOCC5)cc4)c3)cc21` [GSK-269962A] was tested. Which IC50 (CA46) did it give?
A: > 2.5 µM

Q: And the IC50 (SIMA)?
A: > 2.5 µM

Q: And the IC50 (SU-DHL-1)?
A: > 2.5 µM

Q: And the IC50 (IMR-5)?
A: > 2.5 µM

Q: What about the IC50 (MHH-CALL-2) of the same compound?
A: > 2.5 µM

Q: And the IC50 (LC4-1)?
A: > 2.5 µM

Q: And the IC50 (D-392MG)?
A: 1430 nM

Q: And the IC50 (Kasumi 1)?
A: > 2.5 µM

Q: What about the IC50 (RL) of the same compound?
A: > 2.5 µM

Q: And the IC50 (TE-15)?
A: > 2.5 µM

Q: And the IC50 (MC-CAR)?
A: > 2.5 µM

Q: And the IC50 (KARPAS-422)?
A: > 2.5 µM

Q: And the IC50 (HCC2157)?
A: > 2.5 µM

Q: What about the IC50 (CMK) of the same compound?
A: 1010 nM

Q: What about the IC50 (NCI-H1882) of the same compound?
A: > 2.5 µM

Q: And the IC50 (NB17)?
A: > 2.5 µM

Q: What about the IC50 (MDA-MB-134-VI) of the same compound?
A: > 2.5 µM

Q: And the IC50 (NCI-H1436)?
A: > 2.5 µM

Q: Which results are given for `Cc1ccc(NC(=O)c2cccc(C(C)(C)C#N)c2)cc1Nc1ccc2ncn(C)c(=O)c2c1`?
A: IC50 (CA46): > 4 µM; IC50 (SIMA): > 4 µM; IC50 (SU-DHL-1): 3.53 µM; IC50 (IMR-5): > 4 µM; IC50 (MHH-CALL-2): > 4 µM; IC50 (LC4-1): > 4 µM; IC50 (D-392MG): 356 nM; IC50 (Kasumi 1): > 4 µM; IC50 (RL): > 4 µM; IC50 (TE-15): > 4 µM; IC50 (MC-CAR): > 4 µM; IC50 (KARPAS-422): > 4 µM; IC50 (HCC2157): > 4 µM; IC50 (CMK): > 4000 nM; IC50 (NCI-H1882): > 4 µM; IC50 (NB17): > 4 µM; IC50 (MDA-MB-134-VI): > 4 µM; IC50 (NCI-H1436): > 4 µM
